Marks after values point to notes of the source that are not given here.
Experiments:
[1] = tested on: Bacillus subtilis (niger) spores; experiment: D values of EDC without isopropyl alcohol, 40° C. (Example 4A); format: cell-based; settings: no isopropyl alcohol; for incubation duration necessary to achieve 6 log reduction: calculated from D value
Description: The following experiment was carried out to assess the effectiveness of a coupling agent, such as EDC, in the absence of isopropyl alcohol or an equivalent alkanol. Bacillus subtilis (niger) spores at levels of 1.5×10^6 were inoculated in sterile cups for approximately 10 minutes. Solutions (50 ml) of 25, 37.5 and 50 mM EDC in 10 mM TRIS, 0.85% NaCl, pH 6.5, which contain no isopropyl alcohol, were prewarmed to 40° C. and then rapidly added to the cups. The cups were incubated at 40° C. for 0.5, 1, 6, 24 and 48 hours; then, the solutions were diluted and filtered in order to collect microorganisms. Next, the filters were rinsed with a 0.1% peptone water solution to eliminate any residual EDC and then incubated on TSA plates for up to 14 days. The plates were examined every day for growth, with the colony forming units (CFUs) being counted, and resulting D values were calculated. Such D values represent the duration (in minutes) of incubation to decrease the level of spores by one log, i.e. eliminating 90% of the spores population.

[2] = tested on: Chaetonium globosom ATCC 6205 spores; experiment: Sterilization in cups at about 38° C. (Example 6); format: cell-based, Chaetonium globosum; settings: 25 mM EDC, 20% isopropanol, inoculum Log 10 ˜4.7
Description: In view of the foregoing verification, it was decided to test the effectiveness of the sterilization process against other bacteria using sterile cups. Added to each of the cups is 20 ml of 10 mM HEPES, 0.85%, Nacl, 20% isopropanol, pH 6.5, containing 25 mM EDC without any coupling enhancer, before the cups are placed in a incubator at about 38° C. When the solution temperature reached about 38° C., approximately 10^5-10^6 organisms were inoculated into the solution. The tests were carried out in triplicate. The following four isolated were tested in the form of sporous suspensions: Clostridium sporogenes ATCC 3584, Bacillus pumilus ATCC 27142, Chaetonium globosom ATCC 6205, and Microacus cinereus ATCC 16594. The following three isolates were tested as vegetative cells: Mycobacterium chelonae ATCC 35752, Methylbacterium extorquens ATCC 43645 and Trichosporon aquatile ATCC 22310. The inoculated systems were allowed to incubate for 1 hour, for 5 hours or for 24 hours, and the solutions were then filtered through a 0.45 micron filter. After rinsing, the filter was placed on a TSA plate as described in Example 1. Negative and positive controls indicate that the tests were valid. The results are set forth in Table D which follows wherein the number of CFUs in the inoculum is expressed as its log to the base 10, e.g. 3.4×10^5=5.5: […]

[3] = tested on: Mycobacterium Chelonae ATCC 35752; experiment: Sterilization test, Mycobacterium chelonae in sterile cups at room temperature (Example 1); format: cell-based; parameters: key: (+) Indicates growth; (−) indicates no growth or complete kill; settings: 10 mM EDC+1 mM Sulfo-NHS, 20% isopropyl alcohol
Description: Porcine aortic roots are fixed by cross-linking according to the method described in U.S. Pat. No. 5,447,536. After fixation, the valves are stored in 10 mM HEPES, 0.85% NaCl, 20% isopropyl alcohol, pH 7.4, at 4° C. The sterility tests described in the following examples are in most cases conducted in the presence of bioprosthetic heart valve tissue; when such tissue is not present, the solutions are simply filtered through a 0.45 micron filter attached to a funnel (filter funnel). The filters are then rinsed with peptone water to eliminate residual chemicals on the membrane that may prevent growth of the organisms tested. Such membrane filters are then incubated on TSA plates at about 32° to 33° C., e.g. 32.5° C. When an aortic valve is inoculated with microorganisms for test purposes and then submitted to sterilization, the solution is filtered as described above. The aortic valve tissue is then washed for 20 minutes in a reciprocating shaker in the presence of peptone water containing Tween 80 in order to extract all indigenous spores or microorganisms from the tissue. This solution is filtered and then incubated as described above. All microbiological testing is performed in a biological laminar flow hood to prevent contamination. The shrinkage temperature and the proteolytic (collagenase and protease) degradation tests are conducted as previously described in the '536 patent. Resistance to calcification is assessed by subdermal implantation of sterilized leaflets and aortic wall coupons in young rats, as also described in the '536 U.S. patent.
Mycobacterium Chelonae ATCC 35752 (˜10^5) was inoculated in sterile cups. A 10 mM HEPES, 0.85% NaCl, pH 6.5 solution containing 10 mM EDC and 1 mM Sulfo-NHS in the presence or absence of 20% isopropyl alcohol was maintained in contact with the bacteria in the cups for various periods of time (treatment duration). The cups were maintained at room temperature, and the solutions were then filtered. The filters were then incubated at about 32-33° C. for up to 6 weeks (incubation duration) using either Trypticase Soy Agar (TSA) plates or Trypticase Soy Broth (TSB). All inoculations were done in duplicate.

## CCN=C=NCCCN(C)C.Cl [EDC, 1-ethyl-3(3-dimethylaminopropyl)carbodiimide hydrochloride]
[1]; 25 mM EDC
  D value (duration of incubation to decrease the level of spores by one log): 203 minutes
  incubation duration necessary to achieve 6 log reduction: 24 hours
[1]; 37.5 mM EDC
  D value (duration of incubation to decrease the level of spores by one log): 106 minutes
  incubation duration necessary to achieve 6 log reduction: 11 hours
[1]; 50 mM EDC
  D value (duration of incubation to decrease the level of spores by one log): 86 minutes
  incubation duration necessary to achieve 6 log reduction: 9 hours
[2]; 5 Hours treatment
  hours of incubation of plates after which no growth was observed: (72 hrs.)*
[2]; 24 Hours treatment
  hours of incubation of plates after which no growth was observed: (96 hrs.)*
[3]; treatment 0 hour, incubation 1 Day, TSA
  growth: −,−
[3]; treatment 0 hour, incubation 1 Day, TSB
  growth: −,−
[3]; treatment 0 hour, incubation 1 Week, TSA
  growth: −,−
[3]; treatment 0 hour, incubation 1 Week, TSB
  growth: −,−
[3]; treatment 12 hours, incubation 1 Day, TSA
  growth: −,−
[3]; treatment 12 hours, incubation 1 Day, TSB
  growth: −,−
[3]; treatment 12 hours, incubation 1 Week, TSA
  growth: −,−
[3]; treatment 12 hours, incubation 1 Week, TSB
  growth: −,−
[3]; treatment 12 hours, incubation 3 Week, TSA
  growth: −,−
[3]; treatment 12 hours, incubation 3 Week, TSB
  growth: −,−
[3]; treatment 12 hours, incubation 4 Week, TSA
  growth: −,−
[3]; treatment 12 hours, incubation 4 Week, TSB
  growth: −,−
[3]; treatment 12 hours, incubation 6 Week, TSA
  growth: −,−
[3]; treatment 12 hours, incubation 6 Week, TSB
  growth: −,−
[3]; treatment 24 hours, incubation 1 Day, TSA
  growth: −,−
[3]; treatment 24 hours, incubation 1 Day, TSB
  growth: −,−
[3]; treatment 24 hours, incubation 1 Week, TSA
  growth: −,−
[3]; treatment 24 hours, incubation 1 Week, TSB
  growth: −,−
[3]; treatment 24 hours, incubation 3 Week, TSA
  growth: −,−
[3]; treatment 24 hours, incubation 3 Week, TSB
  growth: −,−
[3]; treatment 24 hours, incubation 4 Week, TSA
  growth: −,−
[3]; treatment 24 hours, incubation 4 Week, TSB
  growth: −,−
[3]; treatment 24 hours, incubation 6 Week, TSA
  growth: −,−
[3]; treatment 24 hours, incubation 6 Week, TSB
  growth: −,−
[3]; treatment 48 hours, incubation 1 Day, TSA
  growth: −,−
[3]; treatment 48 hours, incubation 1 Day, TSB
  growth: −,−
[3]; treatment 48 hours, incubation 1 Week, TSA
  growth: −,−
[3]; treatment 48 hours, incubation 1 Week, TSB
  growth: −,−
[3]; treatment 48 hours, incubation 3 Week, TSA
  growth: −,−
[3]; treatment 48 hours, incubation 3 Week, TSB
  growth: −,−
[3]; treatment 48 hours, incubation 4 Week, TSA
  growth: −,−
[3]; treatment 48 hours, incubation 4 Week, TSB
  growth: −,−
[3]; treatment 48 hours, incubation 6 Week, TSA
  growth: −,−
[3]; treatment 48 hours, incubation 6 Week, TSB
  growth: −,−
[3]; treatment 72 hours, incubation 1 Day, TSA
  growth: −,−
[3]; treatment 72 hours, incubation 1 Day, TSB
  growth: −,−
[3]; treatment 72 hours, incubation 1 Week, TSA
  growth: −,−
[3]; treatment 72 hours, incubation 1 Week, TSB
  growth: −,−
[3]; treatment 72 hours, incubation 3 Week, TSA
  growth: −,−
[3]; treatment 72 hours, incubation 3 Week, TSB
  growth: −,−
[3]; treatment 72 hours, incubation 4 Week, TSA
  growth: −,−
[3]; treatment 72 hours, incubation 4 Week, TSB
  growth: −,−
[3]; treatment 72 hours, incubation 6 Week, TSA
  growth: −,−
[3]; treatment 72 hours, incubation 6 Week, TSB
  growth: −,−

From US6506339B1, “Method of sterilization” (Biomedical Design, Inc., priority 1997, dated 2003)
